From US20070077279A1, “Novel compositions containing polyphenols” (DSM IP Assets B.V., priority 2005, published 2007)

Assays:
Format in all cases: physicochemical
[1] = Storage test of lozenges at room temperature (25° C./60% relative humidity) in closed polypropylene tubes; details: for Vitamin/polyphenol in mg/tablet, 1 month: lozenges of Example 1, 1 month; for Vitamin/polyphenol in mg/tablet, 2 months: lozenges of Example 1, 2 months; for Vitamin/polyphenol in mg/tablet, 3 months: lozenges of Example 1, 3 months; for Vitamin/polyphenol in mg/tablet, 6 months: lozenges of Example 1, 6 months; for Vitamin/polyphenol in mg/tablet, 12 months: lozenges of Example 1, 12 months; for Vitamin/polyphenol in mg/tablet, 18 months: lozenges of Example 1, 18 months; for Vitamin/polyphenol in mg/tablet, 24 months: lozenges of Example 1, 24 months
[2] = Storage test of chewable tablets at room temperature (25° C./60% relative humidity) in closed polypropylene tubes; details: for Vitamin/polyphenol in mg/tablet, 1 month: chewable tablets of Example 2, 1 month; for Vitamin/polyphenol in mg/tablet, 2 months: chewable tablets of Example 2, 2 months; for Vitamin/polyphenol in mg/tablet, 3 months: chewable tablets of Example 2, 3 months; for Vitamin/polyphenol in mg/tablet, 6 months: chewable tablets of Example 2, 6 months; for Vitamin/polyphenol in mg/tablet, 12 months: chewable tablets of Example 2, 12 months
[3] = Storage test of lozenges under accelerated conditions (40° C./75% relative humidity) in closed polypropylene tubes; details: lozenges of Example 1; for Initial Assay, vitamin/polyphenol in mg/tablet: 40° C./75% relative humidity study; for Vitamin/polyphenol in mg/tablet, 1 month 40° C. / Vitamin/polyphenol in mg/tablet, 2 months 40° C. / Vitamin/polyphenol in mg/tablet, 3 months 40° C.: 40° C./75% relative humidity
[4] = Storage test of chewable tablets under accelerated conditions (40° C./75% relative humidity) in closed polypropylene tubes; details: chewable tablets of Example 2; for Initial Assay, vitamin/polyphenol in mg/tablet: 40° C./75% relative humidity study; for Vitamin/polyphenol in mg/tablet, 1 month 40° C. / Vitamin/polyphenol in mg/tablet, 2 months 40° C. / Vitamin/polyphenol in mg/tablet, 3 months 40° C.: 40° C./75% relative humidity
[5] = lozenges of Example 1, initial (Table 2)
[6] = chewable tablets of Example 2, initial
[7] = chewable tablets of Example 2, initial (Table 4)

Row | Vitamin/polyphenol in mg/tablet, 1 month [1] [mg] | Vitamin/polyphenol in mg/tablet, 2 months [1] [mg] | Vitamin/polyphenol in mg/tablet, 3 months [1] [mg] | Vitamin/polyphenol in mg/tablet, 6 months [1] [mg] | Vitamin/polyphenol in mg/tablet, 12 months [1] [mg] | Vitamin/polyphenol in mg/tablet, 18 months [1] [mg] | Vitamin/polyphenol in mg/tablet, 24 months [1] [mg] | Initial Assay, vitamin/polyphenol in mg/tablet ([1]; lozenges of Example 1, initial) [mg] | Initial Assay, vitamin/polyphenol in mg/tablet [1, 5] [mg] | Vitamin/polyphenol in mg/tablet, 1 month [2] [mg] | Vitamin/polyphenol in mg/tablet, 2 months [2] [mg] | Vitamin/polyphenol in mg/tablet, 3 months [2] [mg] | Vitamin/polyphenol in mg/tablet, 6 months [2] [mg] | Vitamin/polyphenol in mg/tablet, 12 months [2] [mg] | Initial Assay, vitamin/polyphenol in mg/tablet [2, 6] [mg] | Initial Assay, vitamin/polyphenol in mg/tablet [2, 7] [mg] | Initial Assay, vitamin/polyphenol in mg/tablet [3] [mg] | Vitamin/polyphenol in mg/tablet, 1 month 40° C. [3] [mg] | Vitamin/polyphenol in mg/tablet, 2 months 40° C. [3] [mg] | Vitamin/polyphenol in mg/tablet, 3 months 40° C. [3] [mg] | SMILES | further results
1 | 11.8 | 10.9 | 11.0 | 10.6 | 11.6 | 12.0 | 11.3 | 11.9 | 11.9 | 23.0 | 23.8 | 24.1 | 23.7 | 22.6 | 23.8 | 23.8 | 11.9 | 11.8 | 11.4 | 10.6 | O=C(O[C@@H]1Cc2c(O)cc(O)cc2O[C@@H]1c1cc(O)c(O)c(O)c1)c1cc(O)c(O)c(O)c1 [EGCG, epigallocatechin gallate] | Initial Assay, vitamin/polyphenol in mg/tablet [4]: 23.8 mg; Vitamin/polyphenol in mg/tablet, 1 month 40° C. [4]: 24.8 mg; Vitamin/polyphenol in mg/tablet, 2 months 40° C. [4]: 23.2 mg; Vitamin/polyphenol in mg/tablet, 3 months 40° C. [4]: 23.2 mg
2 | 11.4 | 12.2 | 11.3 | 12.3 | 12.1 | 12.0 | 11.9 | 12.2 | 12.2 | 32.3 | 33.3 | 36.1 | 32.5 | 33.0 | 33.7 | 33.7 | 12.2 | 11.2 | 11.1 | 11.2 | O=C1O[C@H]([C@@H](O)CO)C(O)=C1O [Vit C, Ascorbic Acid] | Initial Assay, vitamin/polyphenol in mg/tablet [4]: 33.7 mg; Vitamin/polyphenol in mg/tablet, 1 month 40° C. [4]: 31.8 mg; Vitamin/polyphenol in mg/tablet, 2 months 40° C. [4]: 32.4 mg; Vitamin/polyphenol in mg/tablet, 3 months 40° C. [4]: 33.6 mg
3 | 1.7 | 1.7 | 1.8 | 1.6 | 1.5 | 1.6 | 1.7 | 1.6 | 1.6 | 8.4 | 8.5 | 8.6 | 8.3 | 8.6 | 8.3 | 8.3 | 1.6 | 1.6 | 1.6 | 1.8 | CC(=O)Oc1c(C)c(C)c2c(c1C)CCC(C)(CCC[C@H](C)CCC[C@H](C)CCCC(C)C)O2 (stereo partly drawn) [Vit E, Tocopherol Acetate] | Initial Assay, vitamin/polyphenol in mg/tablet [4]: 8.3 mg; Vitamin/polyphenol in mg/tablet, 1 month 40° C. [4]: 8.7 mg; Vitamin/polyphenol in mg/tablet, 2 months 40° C. [4]: 8.5 mg; Vitamin/polyphenol in mg/tablet, 3 months 40° C. [4]: 8.5 mg
